Reference: the CheMixHub viscosity set

Assay: xn = mol fraction of the nth substance listed

CC(O)CO (stereo not drawn) + CS(C)=O
viscosity [mPa·s], 100 kPa
Conditions	293.15 K	298.15 K	303.15 K	308.15 K	313.15 K	318.15 K
x1 = 0.0513	2.52	2.24	2.04	1.8	1.65	1.55
x1 = 0.1024	2.82	2.51	2.28	1.99	1.82	1.7
x1 = 0.1534	3.19	2.82	2.55	2.21	2.01	1.87
x1 = 0.2043	3.61	3.17	2.86	2.44	2.22	2.06
x1 = 0.255	4.08	3.54	3.19	2.72	2.46	2.27
x1 = 0.3056	4.63	4	3.58	3.02	2.72	–
x1 = 0.356	5.31	4.56	4.03	3.38	3.04	–
x1 = 0.4064	6.1	5.21	4.56	3.82	3.39	–
x1 = 0.4566	7.04	5.93	5.17	4.28	3.8	–
x1 = 0.5066	8.19	6.88	5.94	4.84	4.25	–
x1 = 0.5565	9.53	7.93	6.78	5.52	4.8	–
x1 = 0.6063	11.3	9.3	7.84	6.36	5.45	–
x1 = 0.6556	13.5	11	9.26	7.35	6.26	–
x1 = 0.7055	16.3	13.1	10.9	8.58	7.23	–
x1 = 0.7549	19.9	15.8	12.8	10.1	8.38	–
x1 = 0.8042	24.4	19	15.4	12	9.8	–
x1 = 0.8533	30.1	23.2	18.5	14.3	11.5	–
x1 = 0.9024	37.7	28.7	22.7	17.2	13.7	–
x1 = 0.9512	47.5	35.5	27.6	20.7	16.2	–

CC(O)CO (stereo not drawn) + O
Conditions	viscosity [mPa·s]
293.15 K, 101 kPa, x1 = 0.0256	1.469
293.15 K, 101 kPa, x1 = 0.0558	2.125
293.15 K, 101 kPa, x1 = 0.092	3.14
293.15 K, 101 kPa, x1 = 0.1362	4.717
293.15 K, 101 kPa, x1 = 0.1913	6.665
293.15 K, 101 kPa, x1 = 0.2619	9.425
293.15 K, 101 kPa, x1 = 0.3556	14.17
293.15 K, 101 kPa, x1 = 0.4862	21.99
293.15 K, 101 kPa, x1 = 0.6804	35.18
298.15 K, 100 kPa, x1 = 0.2	5.452
298.15 K, 100 kPa, x1 = 0.4	12.77
298.15 K, 100 kPa, x1 = 0.6	21.63
298.15 K, 100 kPa, x1 = 0.8	32.85
298.15 K, 101 kPa, x1 = 0.197	5.634
298.15 K, 101 kPa, x1 = 0.3086	9.397
298.15 K, 101 kPa, x1 = 0.3774	12.17
298.15 K, 101 kPa, x1 = 0.4524	15.52
298.15 K, 101 kPa, x1 = 0.5109	18.22
298.15 K, 101 kPa, x1 = 0.5926	22.24
298.15 K, 101 kPa, x1 = 0.6898	27.16
298.15 K, 101 kPa, x1 = 0.8043	33.02
298.15 K, 101 kPa, x1 = 0.8747	36.98
298.15 K, 101 kPa, x1 = 0.9466	41.1
298.15 K, 101.3 kPa, x1 = 0.03	1.311
298.15 K, 101.3 kPa, x1 = 0.06	1.851
298.15 K, 101.3 kPa, x1 = 0.1	2.733
298.15 K, 101.3 kPa, x1 = 0.12	3.233
298.15 K, 101.3 kPa, x2 = 0.044	41.25
303.15 K, 101 kPa, x1 = 0.0101	0.902
303.15 K, 101 kPa, x1 = 0.02	1.022
303.15 K, 101 kPa, x1 = 0.0256	1.133
303.15 K, 101 kPa, x1 = 0.03	1.143
303.15 K, 101 kPa, x1 = 0.0399	1.282
303.15 K, 101 kPa, x1 = 0.0501	1.424
303.15 K, 101 kPa, x1 = 0.0558	1.572
303.15 K, 101 kPa, x1 = 0.0598	1.568
303.15 K, 101 kPa, x1 = 0.07	1.726
303.15 K, 101 kPa, x1 = 0.08	1.896
303.15 K, 101 kPa, x1 = 0.0899	2.059
303.15 K, 101 kPa, x1 = 0.092	2.236
303.15 K, 101 kPa, x1 = 0.1	2.246
303.15 K, 101 kPa, x1 = 0.1362	3.17
303.15 K, 101 kPa, x1 = 0.1913	4.481
303.15 K, 101 kPa, x1 = 0.2619	6.027
303.15 K, 101 kPa, x1 = 0.3556	8.744
303.15 K, 101 kPa, x1 = 0.4862	13.55
303.15 K, 101 kPa, x1 = 0.6804	21
303.15 K, 101 kPa, x2 = 0.97	1.143
308.15 K, 101 kPa, x1 = 0.0101	0.81
308.15 K, 101 kPa, x1 = 0.02	0.91
308.15 K, 101 kPa, x1 = 0.0399	1.13
308.15 K, 101 kPa, x1 = 0.0501	1.249
308.15 K, 101 kPa, x1 = 0.0598	1.373
308.15 K, 101 kPa, x1 = 0.07	1.499
308.15 K, 101 kPa, x1 = 0.08	1.642
308.15 K, 101 kPa, x1 = 0.0899	1.775
308.15 K, 101 kPa, x1 = 0.1	1.927
313.15 K, 101 kPa, x1 = 0.0101	0.732
313.15 K, 101 kPa, x1 = 0.02	0.82
313.15 K, 101 kPa, x1 = 0.0256	0.9114
313.15 K, 101 kPa, x1 = 0.03	0.907
313.15 K, 101 kPa, x1 = 0.0399	1.005
313.15 K, 101 kPa, x1 = 0.0501	1.105
313.15 K, 101 kPa, x1 = 0.0558	1.267
313.15 K, 101 kPa, x1 = 0.0598	1.213
313.15 K, 101 kPa, x1 = 0.07	1.315
313.15 K, 101 kPa, x1 = 0.08	1.437
313.15 K, 101 kPa, x1 = 0.0899	1.543
313.15 K, 101 kPa, x1 = 0.092	1.703
313.15 K, 101 kPa, x1 = 0.1	1.671
313.15 K, 101 kPa, x1 = 0.1362	2.278
313.15 K, 101 kPa, x1 = 0.1913	2.952
313.15 K, 101 kPa, x1 = 0.2619	4.008
313.15 K, 101 kPa, x1 = 0.3556	5.698
313.15 K, 101 kPa, x1 = 0.4862	8.384
313.15 K, 101 kPa, x1 = 0.6804	12.88
313.15 K, 101 kPa, x2 = 0.97	0.9218
318.15 K, 101 kPa, x1 = 0.0101	0.667
318.15 K, 101 kPa, x1 = 0.02	0.743
318.15 K, 101 kPa, x1 = 0.03	0.819
318.15 K, 101 kPa, x1 = 0.0399	0.904
318.15 K, 101 kPa, x1 = 0.0501	0.99
318.15 K, 101 kPa, x1 = 0.0598	1.078
318.15 K, 101 kPa, x1 = 0.07	1.168
318.15 K, 101 kPa, x1 = 0.08	1.268
318.15 K, 101 kPa, x1 = 0.0899	1.361
318.15 K, 101 kPa, x1 = 0.1	1.466
323.15 K, 100 kPa, x1 = 0.2	2.308
323.15 K, 100 kPa, x1 = 0.4	4.7
323.15 K, 100 kPa, x1 = 0.6	7.261
323.15 K, 100 kPa, x1 = 0.8	9.984
323.15 K, 101 kPa, x1 = 0.0101	0.611
323.15 K, 101 kPa, x1 = 0.02	0.678
323.15 K, 101 kPa, x1 = 0.0256	0.7514
323.15 K, 101 kPa, x1 = 0.03	0.744
323.15 K, 101 kPa, x1 = 0.0558	0.9714
323.15 K, 101 kPa, x1 = 0.092	1.282
323.15 K, 101 kPa, x1 = 0.1362	1.644
323.15 K, 101 kPa, x1 = 0.1913	2.138
323.15 K, 101 kPa, x1 = 0.2619	2.813
323.15 K, 101 kPa, x1 = 0.3556	3.891
323.15 K, 101 kPa, x1 = 0.4862	5.583
323.15 K, 101 kPa, x1 = 0.6804	8.332
